Data: US9845310B2 (priority 2015, dated 2017)
Values joined by “and” are separate entries in the source; they are usually repeats but may differ in a detail not shown here. Identical values can stand only once. Like-named read-outs stand apart in the source and are kept apart here.

Experiments:
[1] = test system: naive Sprague Dawley rat hearts; conditions: for left ventricular dP/dtmax (load independent cardiac contractility) / left ventricular dP/dtmin (load independent cardiac relaxation): ex vivo naive Sprague Dawley rat hearts, Langendorff apparatus, as a function of concentration
heart failure rat model = format: in vivo; conditions: for cardiac contractility as measured by dP/dtmax (derivative of left ventricular pressure): male Lewis rats, heart failure by permanent ligation of left descending coronary artery, ejection fraction <35%, dosed acutely for 30 min
Protocol: Male Lewis rats (Charles River, USA) at 2-3 months of age were used for the study. […] APJ agonists were administered dose dependently acutely for a period of 30 min.

APJ = APJ (Homo sapiens (Human), UniProt P35414); assay: [35S]GTPγS binding assay on membranes from CHO cells stably expressing human APJ receptor; format: biochemical
Protocol: A GTPγS binding assay was performed on membranes prepared from CHO cells stably expressing human APJ receptor. The optimum experimental conditions for the concentrations of GDP, MgCl2, and NaCl in the assay buffer were initially determined. The assay was performed in assay buffer [20 mM HEPES, pH 7.5, 5 mM MgCl2, and 0.1% (w/v) BSA with 200 mM NaCl, 3 M GDP] and membranes expressing human APJ receptor/well along with WGA PS beads. The reaction was initiated by addition of 0.2 nM [^35S]GTPγS (Perkin Elmer Life and Analytical Sciences, Waltham USA) in the absence or presence of various ligands and incubated at RT for 90 min. Nonspecific binding was determined in the presence of 100 M GTPγS and was always less than 0.2% of total binding.

[2] = ex vivo isolated perfused rat heart, contractility, percent change over vehicle
[3] = ex vivo isolated perfused rat heart, relaxation (lusitropic), percent change over vehicle
[4] = in vivo heart failure (MI) rat, acute administration for 30 min
[5] = read-out: Activity hAPJ SPA EC50 IP

Sequence of APJ (P35414 whole entry, the tested form may be a part): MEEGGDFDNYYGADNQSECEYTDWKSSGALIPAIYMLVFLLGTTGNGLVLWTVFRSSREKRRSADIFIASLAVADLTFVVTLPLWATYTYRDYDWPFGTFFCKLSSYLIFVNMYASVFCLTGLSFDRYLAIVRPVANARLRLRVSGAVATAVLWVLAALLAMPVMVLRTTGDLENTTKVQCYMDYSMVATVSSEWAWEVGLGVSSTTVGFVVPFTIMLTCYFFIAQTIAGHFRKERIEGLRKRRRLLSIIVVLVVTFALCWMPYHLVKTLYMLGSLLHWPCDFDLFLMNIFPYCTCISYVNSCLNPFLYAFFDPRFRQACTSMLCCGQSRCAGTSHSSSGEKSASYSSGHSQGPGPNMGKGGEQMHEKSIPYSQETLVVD

Compound: CCO[C@H](c1ncc(C)cn1)[C@H](C)S(=O)(=O)Nc1nnc(-c2cccnc2)n1-c1c(OC)cccc1OC (single isomer, unassigned) [Example 109.0]
- Isolated Heart Assay dP/dtmax(%) [1]: 15%
- Isolated Heart Assay dP/dtmin(%) [1]: 25%
- left ventricular dP/dtmax (load independent cardiac contractility) [1]: increases load independent cardiac contractility
- left ventricular dP/dtmin (load independent cardiac relaxation) [1]: increases load independent cardiac relaxation
- cardiac contractility as measured by dP/dtmax (derivative of left ventricular pressure) (heart failure rat model): increase in cardiac contractility
- MI Rat Model dP/dtmax(%) (heart failure rat model; rat, in vivo): 20%

Compound: COc1cccc(-c2nnc(NS(=O)(=O)[C@@H](C)[C@H](OC)c3ncc(C)cn3)n2-c2c(F)cccc2F)n1.O=C(O)C(F)(F)F [Example 684.0, (1R,2S)-N-(4-(2,6-difluorophenyl)-5-(6-methoxy-2-pyridinyl)-4H-1,2,4-triazol-3-yl)-1-methoxy-1-(5-methyl-2-pyrimidinyl)-2-propanesulfonamide]
- Isolated Heart Assay dP/dtmax(%) [1, 2]: 19.0%
- Isolated Heart Assay dP/dtmin(%) [1, 3]: 18.3%
- MI Rat Model dP/dtmax(%) (heart failure rat model; [4]): 20%

Compound: COc1cccc(OC)c1-n1c(NS(=O)(=O)[C@H](C)[C@@H](OC)c2ncc(Cl)cn2)nnc1-c1cncc(C)c1 (single isomer, unassigned) [Example 557.0]
- Isolated Heart Assay dP/dtmax(%) [1, 2]: 17.0%
- Isolated Heart Assay dP/dtmin(%) [1, 3]: 20.0%
- MI Rat Model dP/dtmax(%) (heart failure rat model; [4]): No effect

Compound: COc1cccc(OC)c1-n1c(NS(=O)(=O)[C@@H](C)[C@H](OC)c2ncc(C)cn2)nnc1-c1cncc(C)c1 [Example 203.0, (1R,2S)-N-(4-(2,6-dimethoxyphenyl)-5-(5-methyl-3-pyridinyl)-4H-1,2,4-triazol-3-yl)-1-methoxy-1-(5-methyl-2-pyrimiidnyl)-2-propanesulfonamide]
- Isolated Heart Assay dP/dtmax(%) [1, 2]: No effect
- Isolated Heart Assay dP/dtmin(%) [1, 3]: No effect
- MI Rat Model dP/dtmax(%) (heart failure rat model; [4]): 12%

Compound: COc1cccc(OC)c1-n1c(NS(=O)(=O)[C@@H](C)[C@H](C)c2cnc(C)cn2)nnc1-c1cccnc1 [Example 198.0, (2S,3R)-N-(4-(2,6-dimethoxyphenyl)-5-(pyridin-3-yl)-4H-1,2,4-triazol-3-yl)-3-(5-methylpyrazin-2-yl)butane-2-sulfonamide]
- Isolated Heart Assay dP/dtmax(%) [1, 2]: 15.0%
- Isolated Heart Assay dP/dtmin(%) [1, 3]: 19.0%
- MI Rat Model dP/dtmax(%) (heart failure rat model; [4]): 15%

Compound: COc1ncnc(OC)c1-n1c(NS(=O)(=O)[C@@H](C)[C@H](OC)c2ncc(C)cn2)nnc1-c1ccccn1 [Example 628.0, (1R,2S)-N-(4-(4,6-dimethoxy-5-pyrimidinyl)-5-(2-pyridinyl)-4H-1,2,4-triazol-3-yl)-1-methoxy-1-(5-methyl-2-pyrimidinyl)-2-propanesulfonamide]
- Isolated Heart Assay dP/dtmax(%) [1]: 18.3%
- Isolated Heart Assay dP/dtmin(%) [1]: 18.0%
- MI Rat Model dP/dtmax(%) (heart failure rat model; rat, in vivo): 15%

Compound: COc1cccc(OC)c1-n1c(NS(=O)(=O)[C@@H](C)[C@H](C)c2ncc(C)cn2)nnc1-c1cccnc1 [Example 586.0, (2S,3R)-N-(4-(2,6-dimethoxyphenyl)-5-(3-pyridinyl)-4H-1,2,4-triazol-3-yl)-3-(5-methyl-2-pyrimidinyl)-2-butanesulfonamide]
- Isolated Heart Assay dP/dtmax(%) [1]: 15%
- Isolated Heart Assay dP/dtmin(%) [1]: 21%
- left ventricular dP/dtmax (load independent cardiac contractility) [1]: increases load independent cardiac contractility
- left ventricular dP/dtmin (load independent cardiac relaxation) [1]: increases load independent cardiac relaxation
- cardiac contractility as measured by dP/dtmax (derivative of left ventricular pressure) (heart failure rat model): increase in cardiac contractility

Compound: COc1cccc(OC)c1-n1c(NS(=O)(=O)[C@H](C)[C@@H](C)c2ncc(Cl)cn2)nnc1-c1cccnc1 (racemic) [Example 694.0, (2R,3S)-3-(5-chloropyrimidin-2-yl)-N-(4-(2,6-dimethoxyphenyl)-5-(pyridin-3-yl)-4H-1,2,4-triazol-3-yl)butane-2-sulfonamide or (2S,3R)-3-(5-chloropyrimidin-2-yl)-N-(4-(2,6-dimethoxyphenyl)-5-(pyridin-3-yl)-4H-1,2,4-triazol-3-yl)butane-2-sulfonamide]
- Isolated Heart Assay dP/dtmax(%) [1, 2]: 18.0%
- Isolated Heart Assay dP/dtmin(%) [1, 3]: 32.0%
- MI Rat Model dP/dtmax(%) (heart failure rat model; [4]): 8%

Compound: COc1cccc(OC)c1-n1c(NS(=O)(=O)[C@@H](C)[C@H](O)c2ncc(C)cn2)nnc1-c1cccc(C)n1 [Example 99.0]
- Isolated Heart Assay dP/dtmax(%) [1, 2]: 18% and 19.7%
- Isolated Heart Assay dP/dtmin(%) [1, 3]: 30% and 31%
- MI Rat Model dP/dtmax(%) (heart failure rat model; [4]): 30% and 31%

Compound: COc1cccc(OC)c1-n1c(NS(=O)(=O)[C@@H](C)[C@@H](OC(C)C)c2ncc(C)cn2)nnc1-c1cncc(C)c1 (stereo in doubt) [Example 91.0, (1S,2S)-N-(4-(2,6-dimethoxyphenyl)-5-(5-methylpyridin-3-yl)-4H-1,2,4-triazol-3-yl)-1-isopropoxy-1-(5-methylpyrimidin-2-yl)propane-2-sulfonamide]
- Isolated Heart Assay dP/dtmax(%) [1, 2]: 20.0%
- Isolated Heart Assay dP/dtmin(%) [1, 3]: 43.0%
- MI Rat Model dP/dtmax(%) (heart failure rat model; [4]): 25%

Compound: COc1ccnc(OC)c1-n1c(NS(=O)(=O)[C@@H](C)[C@H](OC)c2ccc(Cl)cn2)nnc1-c1cccnc1 (single isomer, unassigned) [Example 715.0, (1R,2S,P)-1-(5-chloro-2-pyridinyl)-N-(4-(2,4-dimethoxy-3-pyridinyl)-5-(3-pyridinyl)-4H-1,2,4-triazol-3-yl)-1-methoxy-2-propanesulfonamide or (1R,2S,M)-1-(5-chloro-2-pyridinyl)-N-(4-(2,4-dimethoxy-3-pyridinyl)-5-(3-pyridinyl)-4H-1,2,4-triazol-3-yl)-1-methoxy-2-propanesulfonamide]
- EC50 (APJ; Activity hAPJ SPA EC50 IP (μM)): 0.00031 µM

Compound: COc1cccc(OC)c1-n1c(NS(=O)(=O)[C@H](C)[C@@H](OC(C)C)c2ncc(C)cn2)nnc1-c1cccnc1 (stereo in doubt) [Example 624.0, (1S,2R)-N-(4-(2,6-dimethoxyphenyl)-5-(3-pyridinyl)-4H-1,2,4-triazol-3-yl)-1-(1-methylethoxy)-1-(5-methyl-2-pyrimidinyl)-2-propanesulfonamide, (1R,2S)-N-(4-(2,6-dimethoxyphenyl)-5-(3-pyridinyl)-4H-1,2,4-triazol-3-yl)-1-(1-methylethoxy)-1-(5-methyl-2-pyrimidinyl)-2-propanesulfonamide]
- EC50 (APJ; [5]): 0.16 µM

Compound: COc1cccc(-c2nnc(NS(=O)(=O)[C@@H](C)[C@H](O)c3ccc(F)cc3)n2-c2c(OC)cccc2OC)n1 (mixture of isomers) [Example 283.0]
- EC50 (APJ; Activity hAPJ SPA EC50 IP (μM)): 0.00096 µM

Compound: COc1cccc(-c2nnc(NS(=O)(=O)[C@H](C)[C@@H](O)c3cc(C)n(C)n3)n2-c2c(OC)cccc2OC)n1 (racemic) [Example 260.0, (1S,2R)-N-(4-(2,6-dimethoxyphenyl)-5-(6-methoxypyridin-2-yl)-4H-1,2,4-triazol-3-yl)-1-(1,5-dimethyl-1H-pyrazol-3-yl)-1-hydroxypropane-2-sulfonamide and (1R,2S)-N-(4-(2,6-dimethoxyphenyl)-5-(6-methoxypyridin-2-yl)-4H-1,2,4-triazol-3-yl)-1-(1,5-dimethyl-1H-pyrazol-3-yl)-1-hydroxypropane-2-sulfonamide]
- EC50 (APJ; Activity hAPJ SPA EC50 IP (μM)): 0.0024 µM

Compound: COc1cccc(OC)c1-n1c(NS(=O)(=O)[C@@H](C)[C@H](OC)c2ncnn2C)nnc1-c1cncc(C)c1 (single isomer, unassigned) [Example 781.0, (1R,2S)-N-(4-(2,6-dimethoxyphenyl)-5-(5-methyl-3-pyridinyl)-4H-1,2,4-triazol-3-yl)-1-methoxy-1-(1-methyl-1H-1,2,4-triazol-5-yl)-2-propanesulfonamide or (1S,2R)-N-(4-(2,6-dimethoxyphenyl)-5-(5-methyl-3-pyridinyl)-4H-1,2,4-triazol-3-yl)-1-methoxy-1-(1-methyl-1H-1,2,4-triazol-5-yl)-2-propanesulfonamide]
- EC50 (APJ; Activity hAPJ SPA EC50 IP (μM)): 0.59 µM

Compound: COc1cnc([C@@H](C)[C@H](C)S(=O)(=O)Nc2nnc(-c3cccc(OC)n3)n2-c2c(F)cccc2F)cn1 [Example 787.0, (2S,3R)-N-(4-(2,6-difluorophenyl)-5-(6-methoxy-2-pyridinyl)-4H-1,2,4-triazol-3-yl)-3-(5-methoxy-2-pyrazinyl)-2-butanesulfonamide]
- EC50 (APJ; Activity hAPJ SPA EC50 IP (μM)): 0.00053 µM

Compound: COc1cccc(-c2nnc(NS(=O)(=O)[C@H](C)[C@@H](OC(C)C)c3ncc(C)cn3)n2-c2c(OC)cccc2OC)n1 (single isomer, unassigned) [Example 97.0]
- EC50 (APJ; Activity hAPJ SPA EC50 IP (μM)): 0.002 µM

Compound: COc1cccc(OC)c1-n1c(NS(=O)(=O)[C@@H]2CCCO[C@@H]2c2ncc(C)cn2)nnc1-c1cncc(C)c1 (single isomer, unassigned) [Example 644.0]
- EC50 (APJ; [5]): 0.18 µM

Compound: COc1cccc(-c2nnc(NS(=O)(=O)CCc3ccc(C#N)cn3)n2-c2c(OC)cccc2OC)n1 [Example 550.0, 2-(5-cyanopyridin-2-yl)-N-(4-(2,6-dimethoxyphenyl)-5-(6-methoxypyridin-2-yl)-4H-1,2,4-triazol-3-yl)ethanesulfonamide]
- EC50 (APJ; Activity hAPJ SPA EC50 IP (μM)): 0.0008 µM

Compound: COc1cccc(OC)c1-n1c(NS(=O)(=O)C[C@H](O)c2ccc(Cl)cc2S(C)(=O)=O)nnc1-c1cncc(C)c1 (mixture of isomers) [Example 457.0, (2R)-2-(4-chloro-2-(methylsulfonyl)phenyl)-N-(4-(2,6-dimethoxyphenyl)-5-(5-methyl-3-pyridinyl)-4H-1,2,4-triazol-3-yl)-2-hydroxyethanesulfonamide and (2S)-2-(4-chloro-2-(methylsulfonyl)phenyl)-N-(4-(2,6-dimethoxyphenyl)-5-(5-methyl-3-pyridinyl)-4H-1,2,4-triazol-3-yl)-2-hydroxyethanesulfonamide]
- EC50 (APJ; Activity hAPJ SPA EC50 IP (μM)): 0.0003 µM

Compound: COc1cccc(-c2nnc(NS(=O)(=O)[C@H](C)[C@@H](O)C3CC3)n2-c2c(OC)cccc2OC)n1 (mixture of isomers) [Example 438.0]
- EC50 (APJ; Activity hAPJ SPA EC50 IP (μM)): 0.052 µM
